Measurements: patent publication US9481636B2, “N-benzylaniline derivative and uses thereof” (Nanjing Medical University, priority 2011, dated 2016)

The compounds below were run on OGD-injuried neurons (primary cortical neurons) (assay: Cell viability assay: LDH release by OGD-injured primary cortical neurons). Conditions: Mus musculus, Primary cortical neuron; drug concentration 10^−6 M/L; OGD 2 hours, LDH after 8 hours.
Assay type: cell-based, mice
Method: After primary neurons were cultured for 9 days, the medium was replaced by DMEM high glucose medium containing 1% FBS, serum-starved overnight and then washed twice with OGD culture solution. This OGD culture solution contains DMEM medium, 1% FBS, 1% penicillin/streptomycin and B27, and contains no sugar. Then, the primary neurons were incubated with the test drugs for 30 minutes, OGD culture solution was added into an anaerobic tank and oxygen-deprived for 2 hours. The OGD culture solution was discarded, and replaced by oxygen-saturated DMEM medium containing 1% FBS, 1% penicillin/streptomycin and B27. After 8 hours the culture solution was collected to measure LDH level.
After the primary cortical neurons were treated with various processes, neuronal culture solution in six-well plates was pipetted to a 1.5 mL plastic centrifuge tube; cells were washed three times with PBS solution and each well was added PBS 1000 μl. The cells were freezed and thawed repeated for three times, centrifuged at 12000′ g for 5 minutes at 4° C., and the supernatant was removed for use. The activity of LDH enzyme was determined with 50 μl culture solution and 25 μl supernatant using lactate dehydrogenase kit.
Protective Effects of the Objective Compounds Against Primary Cortical Neuronal Injury Cultured In Vitro (See Table 2)

| Compound | inhibition at 1 µM [%] |
| --- | --- |
| CC1(C)C2CCC1(C)C(OC(=O)c1cc(NCc3cc(C(F)(F)F)cc(Cl)c3O)ccc1O)C2 (stereo not drawn) [ZL006-48, bornyl-2-hydroxy-5-(2-hydroxy-3-chloro-5-trifluoromethylbenzyl)aminobenzoate] | 21.1 |
| CC(=O)Oc1cc(NCc2cc(C(F)(F)F)ccc2O)ccc1C(=O)OC1CC2CCC1(C)C2(C)C (stereo not drawn) [ZL006-74, bornyl-2-acetyloxy-4-(2-hydroxy-5-trifluoromethylbenzyl)aminobenzoate] | 24.7 |
| CC1(C)C2CCC1(C)C(OC(=O)c1cc(NCc3cc(F)cc(Cl)c3O)ccc1O)C2 (stereo not drawn) [ZL006-56, bornyl-2-hydroxy-5-(2-hydroxy-3-chloro-5-fluorobenzyl)aminobenzoate] | 50 |
| COc1c(Cl)cc(C(F)(F)F)cc1CNc1ccc(C(=O)OC2CC3CCC2(C)C3(C)C)c(O)c1 (stereo not drawn) [ZL006-79, bornyl-2-hydroxy-4-(2-methoxy-3-chloro-5-trifluoromethylbenzyl)aminobenzoate] | 58.3 |
| CC(Nc1ccc(C(=O)O)c(O)c1)c1cc(Br)ccc1O (stereo not drawn) [ZL006-15, 2-hydroxy-4-[1-(2-hydroxy-5-bromo-phenyl)]ethylaminobenzoic acid] | 28.6 |
| CC(=O)Oc1cc(NCc2cc(C(F)(F)F)cc(Cl)c2O)ccc1C(=O)OC1CC2CCC1(C)C2(C)C (stereo not drawn) [ZL006-51, bornyl-2-acetyloxy-4-(2-hydroxy-3-chloro-5-trifluoromethylbenzyl)aminobenzoate] | 66.3 |
| CC(=O)Oc1c(C(=O)OC2CC3CCC2(C)C3(C)C)ccc(NCc2cc(Cl)cc(Cl)c2O)c1Cl (stereo not drawn) [ZL006-19, bornyl-2-acetyloxy-3-chloro-4-(2-hydroxy-3,5-dichlorobenzyl)aminobenzoate] | 23.9 |
| CC1(C)C2CCC1(C)C(OC(=O)c1ccc(NCc3cc(Cl)cc(Cl)c3O)c(Cl)c1O)C2 (stereo not drawn) [ZL006-17, bornyl-2-hydroxy-3-chloro-4-(2-hydroxy-3,5-dichlorobenzyl)aminobenzoate] | 48.2 |
| CC1(C)C2CCC1(C)C(OC(=O)c1ccc(NCc3cc(C(F)(F)F)cc(Cl)c3O)cc1O)C2 (stereo not drawn) [ZL006-47, bornyl-2-hydroxy-4-(2-hydroxy-3-chloro-5-trifluoromethylbenzyl)aminobenzoate] | 84.2 |
| CCCC(=O)Oc1cc(NCc2cc(C(F)(F)F)cc(Cl)c2O)ccc1C(=O)OC1CC2CCC1(C)C2(C)C (stereo not drawn) [ZL006-52, bornyl-2-butyryloxy-4-(2-hydroxy-3-chloro-5-trifluoromethylbenzyl)aminobenzoate] | 40.5 |

Same assay, conditions: drug concentration 10^−6 M/L; OGD 2 hours, LDH after 8 hours

| Compound | Inhibition of LDH release (%) |
| --- | --- |
| CC(=O)Oc1cc(N(Cc2cc(Cl)cc(Cl)c2O)C(C)=O)ccc1C(=O)OC1CC2CCC1(C)C2(C)C (stereo not drawn) [ZL006-31, bornyl-2-acetyloxy-4-[N-(2-hydroxy-3,5-dichlorobenzyl)-N-acetyl]aminobenzoate] | 77.3 |
| CN(Cc1cc(Cl)cc(Cl)c1O)c1ccc(C(=O)OC2CC3CCC2(C)C3(C)C)c(O)c1 (stereo not drawn) [ZL006-27, bornyl-2-hydroxy-4-[N-(2-hydroxy-3,5-dichlorobenzyl)-N-methyl]aminobenzoate] | 25.3 |
| CC1(C)C2CCC1(C)C(OC(=O)c1ccc(NCc3cc(C(F)(F)F)ccc3O)cc1O)C2 (stereo not drawn) [ZL006-72, bornyl-2-hydroxy-4-(2-hydroxy-5-trifluoromethylbenzyl) aminobenzoate] | 21.6 |
| COc1cc(NCc2cc(C(F)(F)F)ccc2O)ccc1C(=O)OC1CC2CCC1(C)C2(C)C (stereo not drawn) [ZL006-73, bornyl-2-methoxy-4-(2-hydroxy-5-trifluoromethylbenzyl) aminobenzoate] | 25.3 |
| CC1(C)C2CCC1(C)C(OC(=O)c1cc(NCc3cc(Cl)ccc3O)ccc1O)C2 (stereo not drawn) [ZL006-03, bornyl-2-hydroxy-5-(2-hydroxy-5-chlorobenzyl) aminobenzoate] | 17.8 |
| CC(=O)Oc1c(Cl)cc(Br)cc1CNc1ccc(C(=O)OC2CC3CCC2(C)C3(C)C)c(O)c1 (stereo not drawn) [ZL006-78, bornyl-2-hydroxy-4-(2-acetyloxy-3-chloro-5-bromobenzyl) aminobenzoate] | 70.6 |
| COc1cc(N(C)Cc2cc(Cl)cc(Cl)c2O)ccc1C(=O)OC1CC2CCC1(C)C2(C)C (stereo not drawn) [ZL006-29, bornyl-2-methoxy-4-[N-(2-hydroxy-3,5-dichlorobenzyl)-N-methyl]aminobenzoate] | 41.7 |
| CC1(C)C2CCC1(C)C(OC(=O)c1ccc(NCc3cc(F)cc(Cl)c3O)cc1O)C2 (stereo not drawn) [ZL006-08, bornyl-2-hydroxy-4-(2-hydroxy-3-chloro-5-fluorobenzyl) aminobenzoate] | 50.4 |
| COC(=O)c1cc(N(C)Cc2cc(F)cc(Cl)c2O)ccc1O [ZL006-11, methyl 2-hydroxy-5-[N-(2-hydroxy-3-chloro-5-fluorobenzyl)-N-methyl]aminobenzoate] | 41.1 |
| CC1(C)C2CCC1(C)C(OC(=O)c1ccc(NCc3cc(Br)ccc3O)cc1O)C2 (stereo not drawn) [ZL006-63, bornyl-2-hydroxy-4-(2-hydroxy-5-bromobenzyl) aminobenzoate] | 22.8 |
| CCOC(=O)c1ccc(N(C)Cc2cc(Cl)cc(Cl)c2O)cc1C(=O)OCC [ZL006-13, diethyl 4-[N-(3,5-dichloro-2-hydroxybenzyl)-N-methyl]aminophthalate] | 31.4 |
| COc1cc(NCc2cc(Br)ccc2O)ccc1C(=O)OC1CC2CCC1(C)C2(C)C (stereo not drawn) [ZL006-64, bornyl-2-methoxy-4-(2-hydroxy-5-bromobenzyl) aminobenzoate] | 25.4 |
| CN(Cc1cc(Cl)cc(Cl)c1O)c1ccc(O)c(C(=O)O)c1 [ZL006-12, 2-hydroxy-5-[N-(2-hydroxy-3,5-dichlorobenzyl)-N-methyl]aminobenzoic acid] | 15.1 |
| COC(=O)c1ccc(N(Cc2cc(C(F)(F)F)cc(Cl)c2O)C(C)=O)cc1OC(C)=O [ZL006-83, methyl 2-acetyloxy-4-[N-(2-hydroxy-3-chloro-5-trifluoromethylbenzyl)-N-acetyl]aminobenzoate] | 33.2 |
| bornyl-2-(2-methoxy-2-carbonylethoxy)-4-[N-(2-hydroxy-3,5-dichlorobenzyl)-N-methyl]aminobenzoate [ZL006-34] | 24.1 |
| CC(=O)N(Cc1cc(F)cc(Cl)c1O)c1ccc(C(=O)OC2CC3CCC2(C)C3(C)C)c(O)c1 (stereo not drawn) [ZL006-62, bornyl-2-hydroxy-4-[N-(2-hydroxy-3-chloro-5-fluorobenzyl)-N-acetyl]aminobenzoate] | 50.1 |
| COc1cc(NCc2cc(F)cc(Cl)c2O)ccc1C(=O)OC1CC2CCC1(C)C2(C)C (stereo not drawn) [ZL006-57, bornyl-2-methoxy-4-(2-hydroxy-3-chloro-5-fluorobenzyl) aminobenzoate] | 23.6 |
| CC(=O)Oc1cc(NCc2cc(F)cc(Cl)c2O)ccc1C(=O)OC1CC2CCC1(C)C2(C)C (stereo not drawn) [ZL006-07, bornyl-2-acetyloxy-4-(2-hydroxy-3-chloro-5-fluorobenzyl) aminobenzoate] | 20.7 |
| CC1(C)C2CCC1(C)C(OC(=O)c1ccc(NCc3cc(F)ccc3O)cc1O)C2 (stereo not drawn) [ZL006-69, bornyl-2-hydroxy-4-(2-hydroxy-5-fluorobenzyl) aminobenzoate] | 17.3 |
| CC1(C)C2CCC1(C)C(OC(=O)c1ccc(NCc3cc(Br)cc(Cl)c3O)cc1O)C2 (stereo not drawn) [ZL006-39, bornyl-2-hydroxy-4-(2-hydroxy-3-chloro-5-bromobenzyl) aminobenzoate] | 81.2 |
